Experimental data from ChEMBL document CHEMBL3217526, “Bioguided discovery and pharmacophore modeling of the mycotoxic indole diterpene alkaloids penitrems as breast cancer proliferation, migration, and invasion inhibitors” (Medchemcomm, 2013).
pIC50: −log10 of the molar value. Activity calls are given as the source filed them. No cut-off for these calls is given here.

Key:
MDA-MB-231 [1] = experiment: Antiinvasive activity against human MDA-MB-231 cells assessed as inhibition of cell invasion at 15 uM after 24 hrs by BME Cell invasion assay kit; type: functional
Caenorhabditis elegans [2] = experiment: Toxicity in L1 stage Caenorhabditis elegans N2 assessed as viability and reproduction at 10 uM; type: organism-based; settings: in vivo
MDA-MB-231 [3] = experiment: Antimigratory activity in human MDA-MB-231 cells after 24 hrs by wound healing assay; type: functional, cell-based; settings: MDA-MB-231, 24 h
Caenorhabditis elegans [4] = experiment: Toxicity in L1 stage Caenorhabditis elegans N2 assessed as viability and reproduction at 50 uM; type: organism-based; settings: in vivo
MCF7 = experiment: Antiproliferative activity against human MCF7 cells after 72 hrs by MTT assay; type: functional, cell-based; settings: MCF7, 72 h
MDA-MB-231 [5] = experiment: Antiproliferative activity against human MDA-MB-231 cells after 72 hrs by MTT assay; type: functional, cell-based; settings: MDA-MB-231, 72 h

SMILES: C=C1Cc2ccc3[nH]c4c5c3c2[C@H]2[C@@H]1C[C@H]2C(C)(C)O[C@H]5[C@@H]1CC[C@@]2(O)C3=C[C@@H](O)[C@@H](C(=C)C)O[C@H]3CC[C@]2(C)[C@@]41C [PENITREM D]
- inhibition at 15 µM (MDA-MB-231 [1]; MDA-MB-231, 24 h): 50%
- Activity (Caenorhabditis elegans [2]): Non-toxic
- pIC50 (MDA-MB-231 [3]): 5.04
- Activity (Caenorhabditis elegans [4]): Non-toxic
- pIC50 (MCF7): 5.08
- pIC50 (MDA-MB-231 [5]): 4.53

SMILES: C=C1Cc2c(Cl)cc3[nH]c4c5c3c2[C@H]2[C@@H]1C[C@@H]2C(C)(C)O[C@H]5[C@@H]1CC[C@@]2(O)[C@@]35O[C@@H]3[C@@H](O)[C@@H](C(=C)C)O[C@H]5CC[C@]2(C)[C@@]41C [PENITREM F]
- inhibition (MDA-MB-231 [1]): inactive
- Activity (Caenorhabditis elegans [2]): Non-toxic
- pIC50 (MDA-MB-231 [3]): 4.46
- Activity (Caenorhabditis elegans [4]): Non-toxic
- pIC50 (MCF7): 4.82
- pIC50 (MDA-MB-231 [5]): 4.86
